# Experimental data from patent publication US10065990B2, “Cyclic peptide compound, and preparation method, pharmaceutical composition and use thereof” (HANGZHOU GUANYU BIO-MEDICAL CO., LTD, priority 2013, dated 2018).
# Like-named read-outs stand apart in the source and are kept apart here.
# How the values were obtained:
# [1] = tested on: MCF-7 (human breast cancer cells); assay: MTT cancer cell growth inhibition; format: cell-based; details: Homo sapiens, MCF7, 72 h, 72 hours incubation, read-out: GI50 MCF
# Excerpt: (§1) MTT assay principle is yellow MTT can penetrate membrane into the cell, succinic dehydrogenase of the mitochondria in living cells can make exogenous MTT reduction of insoluble in water of blue-violet acicular formazan for crystallization and deposition in the cell, crystallization can be dissolved dimethyl sulfoxide (DMSO) solution, detected its absorbance at 490 nm/570 nm wavelength by enzyme-linked immunosorbent assay, which can reflect the number of cells.
# (§2) Using DMEM+10% FBS culture medium or using 1640+10% FBS culture, respectively.
# (§3) a) Cells were seeded in 96-well plates with the inoculation of 1500/well, 190 μl/hole, 37° C., 5% of CO2 incubator overnight;
# (§4) b) The next day each well was added 10 μl of different drugs. The final concentration of drug was 10^−5˜10^−10M, three parallel holes; 37° C., 5% CO2 culture incubator for 72 hours incubation;
# (§5) c) Per well was added 20 μl 5 mg/ml of MTT, 37° C., 5% CO2 culture incubator for 4 hours incubation;
# (§6) d) The supernatant was discarded. Each well was added 100 μl of DMSO and oscillation;
# (§7) e) 570 nm readings. Calculate cell viability. GI50 calculation based on the results.
# [2] = tested on: Huh-7 (human hepatoma cells); assay: MTT cancer cell growth inhibition; format: cell-based; details: Homo sapiens, Huh-7, 72 h, MTT, 72 hours incubation, Huh-7 cells; read-out: GI50 Huh-7
# Excerpt: as §1, §2, §3, §4, §5, §6, §7
# [3] = tested on: PANC-1 (Pac-1, human pancreatic cancer cells); assay: MTT cancer cell growth inhibition; format: cell-based; details: Homo sapiens, PANC-1, 72 h, MTT, 72 hours incubation, read-out: GI50 PAN
# Excerpt: as §1, §2, §3, §4, §5, §6, §7
# [4] = tested on: lncap (prostate cancer cells); assay: MTT cancer cell growth inhibition; format: cell-based; details: Homo sapiens, LNCaP, 72 h, MTT, 72 hours incubation, read-out: GI50 lnca
# Excerpt: as §1, §2, §3, §4, §5, §6, §7
# [5] = tested on: U937 (human leukemia cells); assay: MTT cancer cell growth inhibition; format: cell-based; details: Homo sapiens, U-937, 72 h, MTT, 72 hours incubation, read-out: GI50 U93
# Excerpt: as §1, §2, §3, §4, §5, §6, §7
# [6] = tested on: K562 (human leukemia cells); assay: MTT cancer cell growth inhibition; format: cell-based; details: Homo sapiens, K562, 72 h, MTT, 72 hours incubation, K562 cells; read-out: GI50 K562
# Excerpt: as §1, §2, §3, §4, §5, §6, §7
# [7] = tested on: Bel-7402 (human hepatoma cells); assay: MTT cancer cell growth inhibition; format: cell-based; details: Homo sapiens, Bel-7402, 72 h, MTT, 72 hours incubation, Bel-7402 cells; read-out: GI50 Bel-7402
# Excerpt: as §1, §2, §3, §4, §5, §6, §7
# [8] = tested on: N-87 (human gastric cancer cells); assay: MTT cancer cell growth inhibition; format: cell-based; details: Homo sapiens, 72 h, MTT, 72 hours incubation, N-87 cells; read-out: GI50 N-87
# Excerpt: as §1, §2, §3, §4, §5, §6, §7
# [9] = tested on: KBM5-T315I (human chronic myelogenous leukemia); assay: MTT cancer cell growth inhibition; format: cell-based; details: Homo sapiens, 72 h, MTT, 72 hours incubation, KBM5-T315I cells; read-out: GI50 KBM5-T315I
# Excerpt: as §1, §2, §3, §4, §5, §6, §7
# [10] = tested on: MOLT-4 (human acute lymphoblastic leukemia cells); assay: MTT cancer cell growth inhibition; format: cell-based; details: Homo sapiens, MOLT-4, 72 h, MTT, 72 hours incubation, read-out: GI50 Mol
# Excerpt: as §1, §2, §3, §4, §5, §6, §7
# [11] = tested on: SGC-7901 (human gastric cancer cells); assay: MTT cancer cell growth inhibition; format: cell-based; details: Homo sapiens, SGC-7901, 72 h, MTT, 72 hours incubation, SGC-7901 cells; read-out: GI50 SGC-7901
# Excerpt: as §1, §2, §3, §4, §5, §6, §7
# [12] = tested on: A549 (human lung cancer cells); assay: MTT cancer cell growth inhibition; format: cell-based; details: Homo sapiens, A549, 72 h, MTT, 72 hours incubation, read-out: GI50 A54
# Excerpt: as §1, §2, §3, §4, §5, §6, §7
# [13] = tested on: BGC-823 (human gastric cancer cells); assay: MTT cancer cell growth inhibition; format: cell-based; details: Homo sapiens, BGC-823, 72 h, MTT, 72 hours incubation, read-out: GI50 BG
# Excerpt: as §1, §2, §3, §4, §5, §6, §7
# [14] = tested on: MDA-MB-231 (breast cancer cells); assay: MTT cancer cell growth inhibition; format: cell-based; details: Homo sapiens, MDA-MB-231, 72 h, read-out: GI50 MDA-MB-231, MTT, 72 hours incubation, MDA-MB-231 cells
# Excerpt: as §1, §2, §3, §4, §5, §6, §7
# [15] = tested on: H1975 (non-small cell lung adenocarcinoma); assay: MTT cancer cell growth inhibition; format: cell-based; details: Homo sapiens, NCI-H1975, 72 h, MTT, 72 hours incubation, H1975 cells; read-out: GI50 H1975
# Excerpt: as §1, §2, §3, §4, §5, §6, §7
# [16] = tested on: HCC827 (human non-small cell lung cancer cells); assay: MTT cancer cell growth inhibition; format: cell-based; details: Homo sapiens, HCC827, 72 h, MTT, 72 hours incubation, HCC827 cells; read-out: GI50 HCC827
# Excerpt: as §1, §2, §3, §4, §5, §6, §7
# [17] = tested on: HT1080 (human fibrosarcoma cells); assay: MTT cancer cell growth inhibition; format: cell-based; details: Homo sapiens, HT-1080, 72 h, MTT, 72 hours incubation, read-out: GI50 HT1
# Excerpt: as §1, §2, §3, §4, §5, §6, §7
# [18] = tested on: DU145 (human prostate cancer cells); assay: MTT cancer cell growth inhibition; format: cell-based; details: Homo sapiens, DU-145, 72 h, MTT, 72 hours incubation, read-out: GI50 Du1
# Excerpt: as §1, §2, §3, §4, §5, §6, §7
# [19] = tested on: Hela (human cervical cancer cells); assay: MTT cancer cell growth inhibition; format: cell-based; details: Homo sapiens, HeLa, 72 h, MTT, 72 hours incubation, read-out: GI50 Hela
# Excerpt: as §1, §2, §3, §4, §5, §6, §7
# [20] = tested on: KBM-5 (human chronic myelogenous leukemia); assay: MTT cancer cell growth inhibition; format: cell-based; details: Homo sapiens, KBM5, 72 h, MTT, 72 hours incubation, KBM-5 cells; read-out: GI50 KBM-5
# Excerpt: as §1, §2, §3, §4, §5, §6, §7
# [21] = target: T1, HDAC7 (Homo sapiens, UniProt Q8WUI4); assay: HDAC biochemical activity measurement (fluorescent substrate deacetylation);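 for all read-outs here: fluorogenic deacetylation assay using acetyl-lysine substrate at 20 µM, enzyme and compound incubated 30 min at 37 °C, then developer added, fluorescence read at 360/460 nm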; details: for IC50 HDAC7: 37° C. 30 minutes
# T1 sequence (Q8WUI4 1-952): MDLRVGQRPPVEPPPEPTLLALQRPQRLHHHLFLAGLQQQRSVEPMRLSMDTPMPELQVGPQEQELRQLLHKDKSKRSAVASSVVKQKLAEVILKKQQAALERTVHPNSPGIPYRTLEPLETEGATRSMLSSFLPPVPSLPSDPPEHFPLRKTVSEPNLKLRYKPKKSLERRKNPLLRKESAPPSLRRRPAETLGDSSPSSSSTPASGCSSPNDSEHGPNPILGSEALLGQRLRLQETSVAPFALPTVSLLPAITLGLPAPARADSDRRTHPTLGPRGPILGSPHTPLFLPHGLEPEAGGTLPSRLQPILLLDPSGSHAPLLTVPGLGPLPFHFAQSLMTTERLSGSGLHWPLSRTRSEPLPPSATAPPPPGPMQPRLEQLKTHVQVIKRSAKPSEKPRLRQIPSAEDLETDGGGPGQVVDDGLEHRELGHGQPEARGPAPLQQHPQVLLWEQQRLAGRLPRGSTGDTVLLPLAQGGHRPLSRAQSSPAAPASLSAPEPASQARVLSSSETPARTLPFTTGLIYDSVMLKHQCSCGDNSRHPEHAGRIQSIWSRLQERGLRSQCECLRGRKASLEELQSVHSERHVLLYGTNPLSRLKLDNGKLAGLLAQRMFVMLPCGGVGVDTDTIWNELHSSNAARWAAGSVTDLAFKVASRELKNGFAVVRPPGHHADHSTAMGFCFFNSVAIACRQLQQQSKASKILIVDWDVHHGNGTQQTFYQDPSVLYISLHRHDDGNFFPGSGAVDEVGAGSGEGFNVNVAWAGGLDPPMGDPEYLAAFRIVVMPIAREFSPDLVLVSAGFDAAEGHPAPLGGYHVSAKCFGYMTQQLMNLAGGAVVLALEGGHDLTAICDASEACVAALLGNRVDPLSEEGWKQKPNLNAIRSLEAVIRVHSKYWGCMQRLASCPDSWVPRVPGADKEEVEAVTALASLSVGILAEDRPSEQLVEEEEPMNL
GI50 ([1]; MCF-7 cells),GI50 [2],GI50 ([3]; PANC-1 cells),GI50 ([4]; lncap cells),GI50 ([5]; U937 cells),GI50 [6],GI50 [7],GI50 [8],GI50 [9],GI50 ([10]; MOLT-4 cells),GI50 [11],GI50 ([12]; A549 cells),GI50 ([13]; BGC-823 cells),GI50 [14],GI50 [15],GI50 [16],GI50 ([17]; HT1080 cells),GI50 ([18]; DU145 cells),GI50 [20],IC50 HDAC7 [21],Structure (SMILES),other results
30 nM,33 nM,20 nM,30 nM,80 nM,48 nM,29 nM,83 nM,72 nM,30 nM,26 nM,30 nM,60 nM,45 nM,65 nM,93 nM,50 nM,30 nM,23 nM,–,C/C=C1\NC(=O)c2cc(SCC)cc(n2)CNC(=O)C[C@@H](/C=C/CCSC(=O)CCCCCCC)OC(=O)[C@H](C(C)C)NC1=O [Compound 248],GI50 ([19]; Hela cells): 60 nM; IC50 (μM) HDAC7 [21]: no activity
50 nM,71 nM,60 nM,20 nM,20 nM,23 nM,54 nM,32 nM,29 nM,90 nM,99 nM,90 nM,70 nM,83 nM,35 nM,37 nM,50 nM,80 nM,21 nM,no activity,C/C=C1\NC(=O)c2nc(ccc2SC)CNC(=O)C[C@@H](/C=C/CCSC(C)=O)OC(=O)[C@H](CCCCN)NC1=O [Compound 192],GI50 ([19]; Hela cells): 290 nM
50 nM,58 nM,50 nM,60 nM,60 nM,62 nM,23 nM,63 nM,53 nM,50 nM,75 nM,30 nM,80 nM,36 nM,24 nM,35 nM,50 nM,40 nM,35 nM,no activity,C/C=C1\NC(=O)c2nc(ccc2SC)CNC(=O)C[C@@H](/C=C/CCSC(=O)CCC)OC(=O)[C@H](C(C)C)NC1=O [Compound 159],GI50 ([19]; Hela cells): 70 nM
–,87 nM,–,–,–,33 nM,39 nM,26 nM,51 nM,–,44 nM,–,–,41 nM,79 nM,93 nM,–,–,11 nM,no activity,CC(C)=C1NC(=O)c2cccc(n2)CNC(=O)C[C@@H](/C=C/CCS)OC(=O)[C@H](C(C)C)NC1=O [Compound 135],GI50 [1]: 50 nM; GI50 [3]: 50 nM; GI50 [4]: 70 nM; GI50 [5]: 90 nM; GI50 [10]: 90 nM; GI50 [12]: 90 nM; GI50 [13]: 50 nM; GI50 [17]: 90 nM; GI50 [18]: 50 nM; GI50 [19]: 70 nM
20 nM,41 nM,20 nM,20 nM,80 nM,24 nM,81 nM,35 nM,46 nM,30 nM,51 nM,20 nM,60 nM,36 nM,51 nM,81 nM,70 nM,50 nM,97 nM,no activity,C/C=C1\NC(=O)c2cc(SC)cc(n2)CNC(=O)C[C@@H](/C=C/CCS)OC(=O)[C@H](C)NC1=O [Compound 233],GI50 ([19]; Hela cells): 50 nM
–,43 nM,–,–,–,22 nM,62 nM,15 nM,29 nM,–,57 nM,–,–,43 nM,29 nM,62 nM,–,–,42 nM,no activity,C=C1NC(=O)c2ccc(F)c(n2)CNC(=O)C[C@@H](/C=C/CCSC(C)=O)OC(=O)[C@H](C)NC1=O [Compound 92],GI50 [1]: 20 nM; GI50 [3]: 60 nM; GI50 [4]: 40 nM; GI50 [5]: 20 nM; GI50 [10]: 40 nM; GI50 [12]: 50 nM; GI50 [13]: 10 nM; GI50 [17]: 60 nM; GI50 [18]: 20 nM; GI50 [19]: 40 nM
